Test results as given in patent publication US10889581B2, “Cyclopropyl fused thiazine derivatives as beta-secretase inhibitors and methods of use” (AMGEN INC., priority 2016, dated 2021).

Assays:
Aβ peptide [1] = settings: nonhuman primates; cited from earlier work
[2] = cited from earlier work
Aβ peptide [3] = settings: oral dose of 95 mg once daily; cited from earlier work
[4] = test system: pigment epithelium of the rat's eye; settings: higher compound dose given for three months; cited from earlier work
Aβ peptide [5] = settings: sustained and dose-dependent; cited from earlier work
human recombinant BACE2 = human recombinant BACE2 (Homo sapiens (Human), UniProt Q9Y5Z0); experiment: In vitro enzymatic BACE2 FRET assay; type: biochemical; settings: pH 4.5, read-out: BACE2 Enzyme IC50
BACE1 [6] = biological target: T1, BACE1 (Homo sapiens (Human), UniProt P56817); experiment: In vitro enzymatic BACE1 FRET assay; type: biochemical; settings: pH 4.5, read-out: BACE1 Enzyme IC50
Target sequence in this assay (P56817 46-501): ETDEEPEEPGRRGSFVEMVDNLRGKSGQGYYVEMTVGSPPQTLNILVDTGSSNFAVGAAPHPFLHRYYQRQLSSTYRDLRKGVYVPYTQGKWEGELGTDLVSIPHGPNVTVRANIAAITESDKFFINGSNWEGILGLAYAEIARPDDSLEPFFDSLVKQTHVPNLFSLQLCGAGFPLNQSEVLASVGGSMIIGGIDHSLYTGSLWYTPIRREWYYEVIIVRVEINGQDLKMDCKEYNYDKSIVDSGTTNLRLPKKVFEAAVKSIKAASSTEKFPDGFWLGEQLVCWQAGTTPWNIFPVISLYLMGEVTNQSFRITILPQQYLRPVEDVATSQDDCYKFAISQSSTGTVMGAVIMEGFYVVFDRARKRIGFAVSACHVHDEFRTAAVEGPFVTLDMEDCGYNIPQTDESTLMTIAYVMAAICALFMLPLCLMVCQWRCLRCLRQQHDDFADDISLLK

Recombinant CatD = Recombinant CatD (Homo sapiens (Human), UniProt P07339); experiment: In vitro enzymatic Cathepsin D (CatD) FRET assay; type: biochemical; settings: pH 3.5, read-out: Cat D Enzyme IC50
BACE1 [7] = biological target: T1, BACE1; experiment: In vitro BACE1 cell-based assay (Aβ40 in conditioned medium of cells stably expressing APP, HTRF); settings: Aβ40, 24 h incubation; read-out: BACE1 Cell IC50
Method: In Vitro BACE1 Cell-Based Assay
The cell-based assay measures inhibition or reduction of Aβ40 in conditioned medium of test compound treated cells expressing amyloid precursor protein. Cells stably expressing Amyloid Precursor Protein (APP) were plated at a density of 45K cells/well in 384 well plates (Corning/BioCoat 354663). The test compounds were then added to cells in 22-point dose response concentrations with the starting concentration being 62.5 μM. The compounds were diluted from stock solutions in DMSO and the final DMSO concentration of the test compounds on cells was 0.625%. The cells were cultivated overnight at 37° C. and 5% CO2 in DMEM supplemented with 10% FBS. After 24 h of incubation with the test compounds, the conditioned media was collected and the Aβ40 levels were determined using HTRF (Homogeneous Time Resolved Fluorescence). The IC50 of the compound was calculated from the percent of control or percent inhibition of Aβ40 as a function of the concentration of the test compound.
The HTRF to detect Aβ40 was performed in 384 well plates (Costar 3658). The antibody pair that were used to detect Aβ40 from cell supernatants were ConfAb40 antibody (Amgen in-house) and biotinylated 6E10 (BIOLEGEND). As an alternative to ConfAb40, a commercially available antibody, Anti-beta Amyloid 1-40 antibody [BDI350] from Abcam, Cambridge, Mass. 02139-1517 (Product code: ab20068), may be used in this assay. The concentrations were 0.35 μg/mL of ConfAb40 antibody and 1.33 μg/mL of 6E10-biotinylated antibody, as well as 4.5 μg/mL of Streptavidin Allophycocyanin Conjugate (ThermoFisher Scientific) in HTRF Buffer ([…], 1% BSA, 0.5% Tween 20).
The conditioned media was incubated with above antibodies and Streptavidin Allophycocyanin Conjugate for 30-60 minutes at 23° C. The final readout was performed on Envision from PerkinElmer.
Target sequence in this assay (P56817 46-501, species assumed): as the sequence (P56817 46-501) above

Sequence of human recombinant BACE2 (Q9Y5Z0 63-518): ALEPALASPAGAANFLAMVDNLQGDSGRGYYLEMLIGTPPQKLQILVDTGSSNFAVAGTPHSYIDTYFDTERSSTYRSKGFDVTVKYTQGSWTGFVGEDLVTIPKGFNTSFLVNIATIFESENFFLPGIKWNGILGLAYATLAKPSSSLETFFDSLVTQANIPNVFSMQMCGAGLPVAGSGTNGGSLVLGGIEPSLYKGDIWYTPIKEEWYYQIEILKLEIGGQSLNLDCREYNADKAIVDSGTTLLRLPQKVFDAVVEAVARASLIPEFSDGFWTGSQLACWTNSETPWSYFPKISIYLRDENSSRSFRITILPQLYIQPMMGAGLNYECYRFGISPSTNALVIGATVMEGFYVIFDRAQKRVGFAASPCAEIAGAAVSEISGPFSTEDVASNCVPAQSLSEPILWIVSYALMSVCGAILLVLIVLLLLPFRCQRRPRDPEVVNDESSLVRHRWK
Sequence of Recombinant CatD (P07339 65-412): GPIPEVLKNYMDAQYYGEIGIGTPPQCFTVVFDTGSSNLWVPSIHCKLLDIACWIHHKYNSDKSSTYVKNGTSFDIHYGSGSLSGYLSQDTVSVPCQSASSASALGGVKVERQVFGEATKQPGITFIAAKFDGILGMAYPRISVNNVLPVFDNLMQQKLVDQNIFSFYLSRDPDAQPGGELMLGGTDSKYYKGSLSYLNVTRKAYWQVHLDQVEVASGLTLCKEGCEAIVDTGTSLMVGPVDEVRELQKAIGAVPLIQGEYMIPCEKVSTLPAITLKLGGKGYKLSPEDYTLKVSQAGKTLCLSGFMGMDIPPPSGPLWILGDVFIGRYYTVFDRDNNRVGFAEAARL

| Structure (SMILES) | IC50 (human recombinant BACE2) [nM] | IC50 (BACE1 [6]) [nM] | IC50 (Recombinant CatD) [nM] | IC50 (BACE1 [7]) [nM] | further results |
| --- | --- | --- | --- | --- | --- |
| C[C@H]1OC[C@]2(c3cc(NC(=O)c4cnc(C(F)F)cn4)ccc3F)N=C(N)SC[C@H]12 [Example E2609] | – | – | – | – | reduction in Aβ peptide levels in the CSF and plasma (Aβ peptide [1]): significant reduction; clinical safety concerns ([2]; repeated doses up to 200 mg, phase I clinical trial): did not show clinical significant safety concerns |
| C[C@@]1(c2cc(NC(=O)c3ccc(C#N)cn3)ccc2F)C=CSC(N)=N1 [JNJ-54861911] | – | – | – | – | Aβ peptide reduction in CSF (Aβ peptide [3]): up to 95% |
| C[C@@]1(c2cc(-c3cncnc3)c(F)cc2F)CCSC(N)=N1 [LY 2811376] | – | – | – | – | eye toxicity finding [4]: damaged the pigment epithelium of the rat's eye |
| CN1C(=N)N[C@](C)(c2cc(NC(=O)c3ccc(F)cn3)ccc2F)CS1(=O)=O [MK-8931] | – | – | – | – | CSF Aβ peptide concentrations (Aβ peptide [5]): significantly reduced; safety profile ([2]; phase I clinical trials): excellent safety profile with no immediately noticeable side effects |
| Cc1cc(C#N)cnc1C#Cc1ccc(F)c([C@@]2(CF)N=C(N)S[C@@]3(/C=C/C(=O)N4CCOCC4)C[C@H]32)c1 [Example 116, 6-((3-((1R,5S,6S)-3-amino-5-(fluoromethyl)-1-((E)-3-morpholino-3-oxoprop-1-en-1-yl)-2-thia-4-azabicyclo[4.1.0]hept-3-en-5-yl)-4-fluorophenyl)ethynyl)-5-methylnicotinonitrile] | 166 | 5 | 172000 | 18 | – |
| Cc1cc(C#Cc2ccc(F)c([C@@]3(CF)N=C(N)S[C@@]4(/C=C/C(=O)N5CCOCC5)C[C@H]43)c2)sn1 [Example 118, (E)-3-((1R,5S,6S)-3-amino-5-(2-fluoro-5-((3-methylisothiazol-5-yl)ethynyl)phenyl)-5-(fluoromethyl)-2-thia-4-azabicyclo[4.1.0]hept-3-en-1-yl)-1-morpholinoprop-2-en-1-one] | 17 | 6 | 26200 | 23 | – |
| Cc1cc(C#N)cnc1C#Cc1ccc(F)c([C@@]2(C)N=C(N)S[C@@]3(C#N)C[C@H]32)c1 [Example 126, (1S,5S,6S)-3-amino-5-(5-((5-cyano-3-methylpyridin-2-yl)ethynyl)-2-fluorophenyl)-5-methyl-2-thia-4-azabicyclo[4.1.0]hept-3-ene-1-carbonitrile] | 617 | 21 | 268000 | 75 | – |
